Reference: US20230037448A1, “FLUORINATED QUINOLINE AND QUINOXALINE DERIVATIVES AS DIHYDROOROTATE DEHYDROGENASE (DHODH) INHIBITORS FOR THE TREATMENT OF CANCER, AUTOIMMUNE AND INFLAMMATORY DISEASES” (Janssen Biotech, Inc., priority 2019, published 2023)
pIC50: −log10 of the molar value.

Key:
MOLM-13 cells = experiment: MOLM-13 Cellular Assay; type: cell-based; settings: 72 hours exposure, cell viability by CellTiter-Glo
Description: MOLM-13 cells were obtained from DSMZ and were maintained in RPMI 1640+Glutamax+25 mM HEPES (Invitrogen, catalog number 72400) supplemented with 10% heat inactivated fetal bovine serum (FBS; Invitrogen, catalog number 16140). The day prior to assay set-up, cells were pelleted, resuspended in fresh media, counted, and cells were plated at 0.4×10^6 cell/mL in a T150 flask. On the day of the assay, cells were pelleted, resuspend in fresh media, counted, and seeded at 5,000 cells/well in white opaque 96-well tissue culture treated microplates (Perkin Elmer, catalog number 6005680). Cells were exposed to different concentrations of test compounds at 37° C., 5% CO2 for 72 hours immediately after seeding. Cell viability was acquired on a Perkin Elmer Envision 2104 multilabel reader using the CellTiter-Glo assay (Promega) according to the manufacturer's instructions.

human DHODH = target: T1, human DHODH (Homo sapiens, UniProt Q02127); experiment: DHODH Enzymatic Assay; type: biochemical; settings: purified human DHODH; DCIP absorbance, end-point mode
T1 construct: purchased Proteros PR-0044
T1 sequence (Q02127 whole entry): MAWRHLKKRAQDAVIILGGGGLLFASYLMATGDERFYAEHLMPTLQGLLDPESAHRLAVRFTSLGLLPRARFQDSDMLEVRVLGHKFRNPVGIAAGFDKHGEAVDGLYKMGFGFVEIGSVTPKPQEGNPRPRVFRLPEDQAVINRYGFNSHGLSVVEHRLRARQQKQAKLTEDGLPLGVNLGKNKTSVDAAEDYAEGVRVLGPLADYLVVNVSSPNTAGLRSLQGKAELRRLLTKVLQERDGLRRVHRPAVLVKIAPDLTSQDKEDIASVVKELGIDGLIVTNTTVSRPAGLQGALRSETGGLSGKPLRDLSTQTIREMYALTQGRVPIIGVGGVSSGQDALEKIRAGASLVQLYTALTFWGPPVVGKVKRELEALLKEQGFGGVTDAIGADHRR
Description: To detect DHODH enzyme activities, dichloroindophenol (DCIP) is added as the final electron acceptor in the assay. DCIP can accept electrons from the reduced coenzyme Q generated in the assay, or from dihydroorotate (DHO) via FMN by binding presumably to the ubiquinone pocket. DCIP solutions are blue, with an intense absorbance around 600 nm, but becomes colorless upon reduction (J. Biol. Chem. (1986) 261, 11386). The assay buffer contained […], pH 7.5, 150 mM NaCl, 0.5 mM EDTA, and 0.1% Triton X-100 in MilliQ water. Substrate consisting of 20 mM DHO, 5 mM CoQ6, and 1 mM DCIP in assay buffer, initiates the reaction. The assay is run in end-point mode by quenching the reaction with the potent DHODH inhibitor brequinar. Absorbance measurements were obtained using the BMG Phera Star plate-reading spectrophotomer. Purified human DHODH was purchased from Proteros (cat. No. PR-0044). Chemicals were purchased from Sigma-Aldrich, Teknova, and Avanti Polar Lipids. Liquid handling was performed using Labcyte Echo and Formulatrix Tempest.

Compound	pIC50 (MOLM-13 cells)	pIC50 (human DHODH)	pIC50 (MOLM-13 cells; Homo sapiens, MOLM-13, 72 h)
CCn1c(CO)nn(-c2cc3c(C(C)C(F)(F)F)cc(-c4ccccc4C)nc3cc2F)c1=O (single isomer, unassigned) [Example 36, (S*)-4-Ethyl-1-(7-fluoro-2-(o-tolyl)-4-(1,1,1-trifluoropropan-2-yl)quinolin-6-yl)-3-(hydroxymethyl)-1H-1,2,4-triazol-5 (4H)-one]	9.40	9.49	
CCn1c(CO)nn(-c2cc3c(C(C)C(F)(F)F)cc(-c4ccccc4C)nc3cc2F)c1=O (single isomer, unassigned) [Example 37, (R*)-4-Ethyl-1-(7-fluoro-2-(o-tolyl)-4-(1,1,1-trifluoropropan-2-yl)quinolin-6-yl)-3-(hydroxymethyl)-1H-1,2,4-triazol-5 (4H)-one]	9.00	8.28	
CCn1c(CO)nn(-c2cc3c(C(C)C)cc(-c4ccccc4OC)nc3cc2F)c1=O [Example 1, 4-Ethyl-1-(7-fluoro-4-isopropyl-2-(2-methoxyphenyl)quinolin-6-yl)-3-(hydroxymethyl)-1H-1,2,4-triazol-5 (4H)-one]		8.48	8.59
CCn1c(CO)nn(-c2cc3c(C(C)C)cc(-c4c(Cl)n[nH]c4C)nc3cc2F)c1=O [Example 2, 1-(2-(3-Chloro-5-methyl-1H-pyrazol-4-yl)-7-fluoro-4-isopropylauinolin-6-yl)-4-ethyl-3-(hydroxymethyl)-1H-1,2,4-triazol-5 (4H)-one]		9.31	8.77
CCn1c(CO)nn(-c2cc3c(C(C)C)cc(-c4c(C(F)(F)F)n[nH]c4C)nc3cc2F)c1=O [Example 3, 4-Ethyl-1-(7-fluoro-4-isopropyl-2-(5-methyl-3-(trifluoromethyl)-1H-pyrazol-4-yl)quinolin-6-yl)-3-(hydroxymethyl)-1H-1,2,4-triazol-5 (4H)-one]		9.24	9.15
CCn1c(CO)nn(-c2cc3c(C(C)C)cc(-c4c(C)cnc(OC)c4C)nc3cc2F)c1=O [Example 4, 4-Ethyl-1-(7-fluoro-4-isopropyl-2-(2-methoxy-3,5-dimethylpyridin-4-yl)quinolin-6-yl)-3-(hydroxymethyl)-1H-1,2,4-triazol-5 (4H)-one]		8.77	8.08
CCC(CC)Oc1cc(C(C)C)c2cc(-n3nc(CO)n(CC)c3=O)c(F)cc2n1 [Example 5, 4-Ethyl-1-(7-fluoro-4-isopropyl-2-(pentan-3-yloxy)quinolin-6-yl)-3-(hydroxymethyl)-1H-1,2,4-triazol-5 (4H)-one]		6.48	< 7.00
CCn1c(CO)nn(-c2cc3c(C(C)C)cc(OC4CCC4)nc3cc2F)c1=O [Example 6, 1-(2-Cyclobutoxy-7-fluoro-4-isopropylauinolin-6-yl)-4-ethyl-3-(hydroxymethyl)-1H-1,2,4-triazol-5 (4H)-one]		5.97	< 7.00
CCn1c(CO)nn(-c2cc3c(C(C)C)cc(-c4c(C)cnc(OC)c4Cl)nc3cc2F)c1=O [Example 7, 1-(2-(3-Chloro-2-methoxy-5-methylpyridin-4-yl)-7-fluoro-4-isopropylquinolin-6-yl)-4-ethyl-3-(hydroxymethyl)-1H-1,2,4-triazol-5 (4H)-one]		8.82	8.40
CCn1c(CO)nn(-c2cc3c(C(C)C)cc(-c4cc(OC)ncc4C)nc3cc2F)c1=O [Example 8, 4-Ethyl-1-(7-fluoro-4-isopropyl-2-(2-methoxy-5-methylpyridin-4-yl)quinolin-6-yl)-3-(hydroxymethyl)-1H-1,2,4-triazol-5 (4H)-one]		8.32	8.04
CCn1c(CO)nn(-c2cc3c(C(C)C)cc(-c4ccccc4C)nc3cc2F)c1=O [Example 9, 4-Ethyl-1-(7-fluoro-4-isopropyl-2-(o-tolyl)quinolin-6-yl)-3-(hydroxymethyl)-1H-1,2,4-triazol-5 (4H)-one]		9.22	9.30
CCn1c(CO)nn(-c2cc3c(C(C)C)nc(-c4ccccc4C)nc3cc2F)c1=O [Example 10, 4-Ethyl-2-(7-fluoro-4-isopropyl-2-(o-tolyl)quinazolin-6-yl)-5-(hydroxymethyl)-2,4-dihydro-3H-1,2,4-triazol-3-one]		8.72	8.66
CCn1c(CO)nn(-c2cc3c(C(C)C)cc(-c4c(C)ccnc4OC)nc3cc2F)c1=O [Example 11, 4-Ethyl-2-(7-fluoro-4-isopropyl-2-(2-methoxy-4-methylpyridin-3-yl)quinolin-6-yl)-5-(hydroxymethyl)-2,4-dihydro-3H-1,2,4-triazol-3-one]		7.49	7.52
CCn1c(CO)nn(-c2cc3c(C(C)C)cc(-n4nc(C)cc4C)nc3cc2F)c1=O [Example 12, 1-(2-(3,5-Dimethyl-1H-pyrazol-1-yl)-7-fluoro-4-isopropylquinolin-6-yl)-4-ethyl-3-(hydroxymethyl)-1H-1,2,4-triazol-5 (4H)-one]		8.64	8.30
CCN(CC)c1cc(C(C)C)c2cc(-n3nc(CO)n(CC)c3=O)c(F)cc2n1 [Example 13, 1-(2-(Diethylamino)-7-fluoro-4-isopropylquinolin-6-yl)-4-ethyl-3-(hydroxymethyl)-1H-1,2,4-triazol-5 (4H)-one]		6.57	< 7.00
CCn1c(CO)nn(-c2cc3c(C(C)C)cc(N4CCCCC4)nc3cc2F)c1=O [Example 14, 4-Ethyl-1-(7-fluoro-4-isopropyl-2-(piperidin-1-yl)quinolin-6-yl)-3-(hydroxymethyl)-1H-1,2,4-triazol-5 (4H)-one]		6.92	7.00
CCn1c(CO)nn(-c2cc3c(C(C)C)cc(-c4c[nH]nc4C4CC4)nc3cc2F)c1=O [Example 15, 1-(2-(3-Cyclopropyl-1H-pyrazol-4-yl)-7-fluoro-4-isopropylquinolin-6-yl)-4-ethyl-3-(hydroxymethyl)-1H-1,2,4-triazol-5 (4H)-one]		7.89	7.70
CCn1c(CO)nn(-c2cc3c(C(C)C)cc(-c4c[nH]nc4C)nc3cc2F)c1=O [Example 16, 4-Ethyl-2-(7-fluoro-4-isopropyl-2-(3-methyl-1H-pyrazol-4-yl)quinolin-6-yl)-5-(hydroxymethyl)-2,4-dihydro-3H-1,2,4-triazol-3-one]		8.03	< 7.52
CCn1c(CO)nn(-c2cc3c(C(C)C)cc(N4CCCC[C@@H]4C)nc3cc2F)c1=O [Example 17, (S)-4-Ethyl-2-(7-fluoro-4-isopropyl-2-(2-methylpiperidin-1-yl)quinolin-6-yl)-5-(hydroxymethyl)-2,4-dihydro-3H-1,2,4-triazol-3-one]		6.64	7.40
CCn1c(CO)nn(-c2cc3c(C(C)C)cc(N4CCCC[C@H]4C)nc3cc2F)c1=O [Example 18, (R)-4-Ethyl-2-(7-fluoro-4-isopropyl-2-(2-methylpiperidin-1-yl)quinolin-6-yl)-5-(hydroxymethyl)-2,4-dihydro-3H-1,2,4-triazol-3-one]		5.64	< 7.00
CCn1c(CO)nn(-c2cc3c(C(C)C)cc(-c4c(C)cnc(O)c4C)nc3cc2F)c1=O [Example 19, 4-Ethyl-2-(7-fluoro-2-(2-hydroxy-3,5-dimethylpyridin-4-yl)-4-isopropylauinolin-6-yl)-5-(hydroxymethyl)-2,4-dihydro-3H-1,2,4-triazol-3-one]		7.92	< 7.00
CCn1c(CO)nn(-c2cc3c(C(C)C)cc(C4CCOCC4)nc3cc2F)c1=O [Example 20, 4-Ethyl-1-(7-fluoro-4-isopropyl-2-(tetrahydro-2H-pyran-4-yl)quinolin-6-yl)-3-(hydroxymethyl)-1H-1,2,4-triazol-5 (4H)-ene]		6.14	< 7.00
CCn1c(CO)nn(-c2cc3c(C(C)C)cc(-c4ccccc4C)[n+]([O-])c3cc2F)c1=O [Example 21, 6-(4-Ethyl-3-(hydroxymethyl)-5-oxo-4,5-dihydro-1H-1,2,4-triazol-1-yl)-7-fluoro-4-isopropyl-2-(o-tolyl)quinoline 1-oxide]		8.34	8.30
CCn1c(CO)nn(-c2cc3c(C(C)C)cc(-c4ccnc(O)c4C)nc3cc2F)c1=O [Example 22, 4-Ethyl-1-(7-fluoro-2-(2-hydroxy-3-methylpyridin-4-yl)-4-isopropylquinolin-6-yl)-3-(hydroxymethyl)-1H-1,2,4-triazol-5 (4H)-one]		8.41	< 7.00
[2H]C([2H])([2H])c1ccccc1-c1cc(C(C)C)c2cc(-n3nc(CO)n(CC)c3=O)c(F)cc2n1 [Example 38, 4-Ethyl-1-(7-fluoro-4-isopropyl-2-(o-methyl-d3-phenyl)quinolin-6-yl)-3-(hydroxymethyl)-1H-1,2,4-triazol-5 (4H)-one]		8.77	
